Measured values published in ChEMBL document CHEMBL1681755, “Antiviral agents 3. Discovery of a novel small molecule non-nucleoside inhibitor of hepatitis B virus (HBV)” (Bioorg Med Chem Lett, 2011).

Legend:
Hepatitis B virus [1] = experiment: Antiviral activity against Hepatitis B virus infected in human HepG2(2.2.15) cells assessed as reduction in viral DNA by Southern blotting; type: functional, organism-based
[2] = Cytotoxicity against human HepG2(2.2.15) cells by neutral red dye uptake assay; type: functional
Huh-7 = experiment: Cytotoxicity against human HuH7 cells after 4 days by neutral red dye uptake assay; type: functional; settings: Huh-7, 96 h
Hepatitis B virus [3] = experiment: Antiviral activity against Hepatitis B virus infected in human HepG2 cells assessed as reduction in viral DNA after 3 days by Southern blotting; type: functional, organism-based; settings: HepG2, 72 h
HepG2 = experiment: Cytotoxicity against human HepG2 cells after 3 days by neutral red dye uptake assay; type: functional; settings: HepG2, 72 h
Hepatitis B virus [4] = experiment: Antiviral activity against Hepatitis B virus infected in human Huh7 cells assessed as reduction in viral DNA after 4 days by Southern blotting; settings: Huh-7, 96 h

**Q.** Which EC50 (Hepatitis B virus [1]) does the source give for `COc1cc2c(cc1OC)C(=O)C(C1=C(C3=C(O)C(=O)c4cc(OC)c(OC)cc4C3=O)C(=O)c3ccccc3C1=O)=C(O)C2=O` here?
**A.** 0.4 µM

**Q.** And the CC50 [2]?
**A.** > 300 µM

**Q.** Which EC50 (Hepatitis B virus [1]) does the source give for `Nc1ccn([C@@H]2CS[C@H](CO)O2)c(=O)n1` [LAMIVUDINE] here?
**A.** 0.06 µM

**Q.** What about the CC50 [2] of the same molecule?
**A.** 2130 µM

**Q.** What about the CC50 (Huh-7) of the same molecule?
**A.** 0.1 µM

**Q.** What about the EC50 (Hepatitis B virus [3]) of the same molecule?
**A.** > 2.5 µM

**Q.** What about the CC50 (HepG2) of the same molecule?
**A.** > 25 µM

**Q.** What about the EC50 (Hepatitis B virus [4]) of the same molecule?
**A.** 0.1 µM

**Q.** With `COc1cccc2c1C(=O)C(C1=C(C3=C(O)C(=O)c4cccc(OC)c4C3=O)C(=O)c3ccccc3C1=O)=C(O)C2=O` as the molecule, how does the EC50 (Hepatitis B virus [1]) read?
**A.** > 10 µM

**Q.** And the CC50 [2]?
**A.** > 300 µM

**Q.** What does the source list for `CC(C)Oc1ccc2c(c1)C(=O)C(C1=C(O)C(=O)c3c(ccc4c3C=CC(C)(C)O4)C1=O)=C(C1=C(O)C(=O)c3c(ccc4c3C=CC(C)(C)O4)C1=O)C2=O`?
**A.** EC50 (Hepatitis B virus [1]): 0.154 µM; CC50 [2]: > 300 µM

**Q.** Which results are given for `CC1(C)C=Cc2c(ccc3c2C(=O)C(O)=C(C2=C(C4=C(O)C(=O)c5c(ccc6c5C=CC(C)(C)O6)C4=O)C(=O)c4c(ccc5c4C=CC(C)(C)O5)C2=O)C3=O)O1`?
**A.** EC50 (Hepatitis B virus [1]): 7.9 µM; CC50 [2]: 45 µM

**Q.** Which EC50 (Hepatitis B virus [1]) does the source give for `CC1(C)CCc2c(ccc3c2C(=O)C(O)=C(C2=C(C4=C(O)C(=O)c5c(ccc6c5CCC(C)(C)O6)C4=O)C(=O)c4ccccc4C2=O)C3=O)O1` here?
**A.** 3.9 µM

**Q.** And the CC50 [2]?
**A.** 1430 µM

**Q.** With `COc1ccc2c(c1)C(=O)C(C1=C(C3=C(O)C(=O)c4ccc(OC)cc4C3=O)C(=O)c3ccccc3C1=O)=C(O)C2=O` as the molecule, how does the EC50 (Hepatitis B virus [1]) read?
**A.** 56 µM

**Q.** What about the CC50 [2] of the same molecule?
**A.** 295 µM

**Q.** What does the source list for `CC1(C)CCc2c(ccc3c2C(=O)C(O)=C(C2=C(C4=C(O)C(=O)c5c(ccc6c5CCC(C)(C)O6)C4=O)C(=O)c4c(ccc5c4CCC(C)(C)O5)C2=O)C3=O)O1`?
**A.** EC50 (Hepatitis B virus [1]): 0.096 µM; CC50 [2]: 44 µM

**Q.** For `COc1ccc2c(c1)C(=O)C(C1=C(O)C(=O)c3c(ccc4c3C=CC(C)(C)O4)C1=O)=C(C1=C(O)C(=O)c3c(ccc4c3C=CC(C)(C)O4)C1=O)C2=O`, which EC50 (Hepatitis B virus [1]) is on record?
**A.** 1.5 µM

**Q.** And the CC50 [2]?
**A.** 466 µM

**Q.** For `Nc1nc(O)c2ncn(CCC(CO)CO)c2n1` [PENCICLOVIR], which EC50 (Hepatitis B virus [1]) is on record?
**A.** 3.4 µM

**Q.** And the CC50 [2]?
**A.** 552 µM

**Q.** For `COc1ccc2c(c1)C(=O)C(O)=C(C1=C(C3=C(O)C(=O)c4cc(OC)ccc4C3=O)C(=O)c3ccccc3C1=O)C2=O`, which EC50 (Hepatitis B virus [1]) is on record?
**A.** 0.05 µM

**Q.** What about the CC50 [2] of the same molecule?
**A.** 58 µM

**Q.** For `O=C1C(O)=C(C2=C(C3=C(O)C(=O)c4ccccc4C3=O)C(=O)c3ccccc3C2=O)C(=O)c2ccccc21`, which EC50 (Hepatitis B virus [1]) is on record?
**A.** > 10 µM

**Q.** And the CC50 [2]?
**A.** > 300 µM

**Q.** Which EC50 (Hepatitis B virus [1]) does the source give for `CC1(C)C=Cc2c(ccc3c2C(=O)C(O)=C(C2=C(C4=C(O)C(=O)c5c(ccc6c5C=CC(C)(C)O6)C4=O)C(=O)c4ccccc4C2=O)C3=O)O1` here?
**A.** 10 µM

**Q.** What about the CC50 [2] of the same molecule?
**A.** 1370 µM

**Q.** For `CC(C)=CCC[C@]1(C)C=Cc2c(ccc3c2C(=O)C(O)=C(C2=C(C4=C(O)C(=O)c5c(ccc6c5C=C[C@@](C)(CCC=C(C)C)O6)C4=O)C(=O)c4c(ccc5c4C=C[C@@](C)(CCC=C(C)C)O5)C2=O)C3=O)O1` [CONOCURVONE], which EC50 (Hepatitis B virus [1]) is on record?
**A.** > 10 µM

**Q.** What about the CC50 [2] of the same molecule?
**A.** > 100 µM

**Q.** Which EC50 (Hepatitis B virus [1]) does the source give for `COc1ccc2c(c1)C(=O)C(O)=C(C1=C(C3=C(O)C(=O)c4cc(OC)ccc4C3=O)C(=O)c3c(ccc4c3CCC(C)(C)O4)C1=O)C2=O` here?
**A.** 0.66 µM

**Q.** And the CC50 [2]?
**A.** > 300 µM

**Q.** What does the source list for `CC(C)=CCC[C@]1(C)C=Cc2c(ccc3c2C(=O)C(O)=C(C2=C(C4=C(O)C(=O)c5c(ccc6c5C=C[C@@](C)(CCC=C(C)C)O6)C4=O)C(=O)c4ccccc4C2=O)C3=O)O1`?
**A.** EC50 (Hepatitis B virus [1]): > 10 µM; CC50 [2]: 14 µM

**Q.** What does the source list for `CC1(C)C=Cc2c(ccc3c2C(=O)C=C(O)C3=O)O1`?
**A.** EC50 (Hepatitis B virus [1]): 4.3 µM; CC50 [2]: > 300 µM; CC50 (Huh-7): > 25 µM; EC50 (Hepatitis B virus [3]): 1.9 µM; CC50 (HepG2): > 25 µM; EC50 (Hepatitis B virus [4]): 2.5 µM

**Q.** With `CC1(C)C=Cc2c(ccc3c2C(=O)C(O)=C(C2=C(C4=C(O)C(=O)c5c(ccc6c5C=CC(C)(C)O6)C4=O)C(=O)c4c(ccc5c4CCC(C)(C)O5)C2=O)C3=O)O1` as the molecule, how does the EC50 (Hepatitis B virus [1]) read?
**A.** 0.009 µM

**Q.** And the CC50 [2]?
**A.** 279 µM
